Marks after values point to notes of the source that are not given here.
Legend:
[1] = test system: three matched taxol-resistant and -sensitive tumor cell lines; assay: Matched taxol-resistant and -sensitive tumor cell lines (summary); type: cell-based; details: Homo sapiens; all three matched taxol-resistant and -sensitive tumor cell lines
Procedure: MES-SA Dx5 and MES-SA cells were plated at a density of 10,000 cells/well onto 96-well plate in complete media and cultured for 24 hours. […] Cells were washed and fixed by adding 100 μL of 2× formaldehyde fixation buffer for 10 minutes and room temperature. […] Cells were immunostained with p-histone H3 antibody (5 μg/mL) and incubated at room temperature for 2 hours. Cells were washed in 100 μL of wash buffer. Next, cells were incubated with a goat anti-rabbit alexa-488 conjugated antibody (1.5 μg/mL) in wash buffer supplemented with Hoechest DNA dye (1 μg/mL) and incubated at room temperature in the dark for 30 minutes. Cells were washed twice with 100 μL of wash buffer. The 96-well plates were analyzed on an ArrayScan VTi (Cellomics) using a bioapplication algorithm (TargetActivation.V2). […] NCI-H460 parental and NCI-H460 taxol-resistant cells were seeded at a density of 500,000 cells/well in a 6-well plate in 2 mL of appropriate complete media. The next day cells were treated with AMG 900 or taxol over a 6-point concentration range with a final DMSO concentration of 0.05% in media. After 24 hours, cells were pulsed with BrdU (1:100 dilution) and harvested. […] Data was acquired and analyzed by flow cytomety (LSRII). […] The +4N (same as ≧4N) DNA content or SubG1 cellular EC50 values were calculated using a 4-parameter equation. […] Data was acquired and analyzed by flow cytometry (LSRII). […]

[2] = test system: MiaPaCa2 xenograft; assay: Xenograft tumor growth inhibition (Example 7); type: in vivo, mice; details: MiaPaCa2, Pancreas; oral 15 mg/kg b.i.d. 2 consecutive days per week or 3 mg/kg b.i.d. every day, 3 weeks
Procedure: (§1) The in-vivo effect of AMG 900 on tumor growth was further evaluated in a panel of human xenografts from five different tumor types (breast, colon, lung, pancreatic, and uterine), including three MDR xenograft models. Mice bearing established tumors were orally administered AMG 900 at 15 mg/kg b.i.d. for 2 consecutive days per week for 3 weeks or at 3 mg/kg b.i.d. every day for 3 weeks. The maximum percentage of tumor growth inhibition (TGI) is reported, in Table 7 below, for each xenograft model. The percentage of TGI was calculated as the difference between the change in vehicle-treated control and AMG 900-treated tumor volumes during the study period.

[3] = test system: NCI-H460 xenograft; assay: Xenograft tumor growth inhibition (Example 7); type: in vivo, mice; details: NCI-H460, Lung; oral 15 mg/kg b.i.d. 2 consecutive days per week or 3 mg/kg b.i.d. every day, 3 weeks
Procedure: as §1

[4] = test system: MDA-MB-231 xenograft; assay: Xenograft tumor growth inhibition (Example 7); type: in vivo, mice; details: MDA-MB-231, Breast; oral 15 mg/kg b.i.d. 2 consecutive days per week or 3 mg/kg b.i.d. every day, 3 weeks
Procedure: as §1

[5] = test system: MES-SA xenograft; assay: Xenograft tumor growth inhibition (Example 7); type: in vivo, mice; details: Uterine, oral 15 mg/kg b.i.d. 2 consecutive days per week or 3 mg/kg b.i.d. every day, 3 weeks
Procedure: as §1

[6] = test system: MES-SA-Dx5 (MDR) xenograft; assay: Xenograft tumor growth inhibition (Example 7); type: in vivo, mice; details: Uterine, oral 15 mg/kg b.i.d. 2 consecutive days per week or 3 mg/kg b.i.d. every day, 3 weeks
Procedure: as §1

[7] = test system: HCT-15 (MDR) xenograft; assay: Xenograft tumor growth inhibition (Example 7); type: in vivo, mice; details: Colon, oral 15 mg/kg b.i.d. 2 consecutive days per week or 3 mg/kg b.i.d. every day, 3 weeks
Procedure: as §1

[8] = test system: SW480; assay: Antiproliferative assay (ArrayScan VTi); type: cell-based; details: Homo sapiens; SW480 (Colon); 24 h treatment, then 48 h without compound
Procedure: Tumor cells were seeded in a Packard View 96-well plate in 100 μL of appropriate complete media at a density of 3000 or 5000 cells/well depending on the cell line growth kinetics (broadly defined as slow vs. fast). All dilutions were performed using Biomek FX workstation. The next day cells were treated with AMG 900 (11-point dose range 0.156 to 0.0003 μM) with a final DMSO concentration of 0.12% in media. After 24 hours, the media containing compound was removed and the cells were washed with complete media. The cells were then incubated in 100 μL of fresh complete media (without compound) for 48 hours. After 48 hours, the cells were fixed by adding 100 μL of fixation buffer to 100 μL of complete media. The cells were incubated at room temperature for 10 minutes. The fixation buffer was aspirated and the cells were then permeabilized in 100 μL wash buffer for 30 minutes at room temperature followed by the addition of 100 μL of DNA stain buffer and incubated at room temperature for 30 minutes in the dark. Next, the cells were washed with 100 μL of wash buffer and stored in 100 μL 1×PBS at 4 degrees Celsius until analysis. Cellular data was attained by scanning the 96-well plates on an ArrayScan VTi imaging system (Cellomics). Quantification of individual cell nuclear area and intensity was performed based on Hoechst 33342 DNA dye fluorescence. A threshold on the nuclear area based on the DMSO-treated control well was set to quantify the number of normal size nuclei from nuclear debris and polyploidy cells. This threshold value was applied to enumerate the number of normal nuclei in six image fields/well using a magnification of 10×. The dose-concentration curves and EC50 values were calculated using a 4-parameter equation.

EC50 [1]: < 2 nM
EC50 [8]: 2 nM
Structure (SMILES): Cc1csc(-c2nnc(Nc3ccc(Oc4ncccc4-c4ccnc(N)n4)cc3)c3ccccc23)c1 [AMG 900, N-(4-((3-(2-amino-4-pyrimidinyl)-2-pyridinyl)oxy)phenyl)-4-(4-methyl-2-thienyl)-1-phthalazinamine]
Maximum TGI (%) [2]: 60** %
Maximum TGI (%) [3]: 85** %
Maximum TGI (%) [4]: 82** %
Maximum TGI (%) [5]: 87** %
Maximum TGI (%) [6]: 84%
Maximum TGI (%) [7]: 50* %

From patent US20120028917A1, “Use Of N-(4-((3-(2-Amino-4-Pyrimidinyl)-2-Pyridinyl)Oxy)Phenyl)-4-(4-Methyl-2-Thienyl)-1-Phthalazinamine In The Treatment Of Antimitotic Agent Resistant Cancer” (Amgen Inc., priority 2009, published 2012)
